Test results as given in ChEMBL document CHEMBL1649220, “New variant of CTX-M-type extended-spectrum beta-lactamases, CTX-M-71, with a Gly238Cys substitution in a Klebsiella pneumoniae isolate from Bulgaria” (2009).

Experiments:
[1] = target: Beta-lactamase AH27 CTX-M-15 (Klebsiella pneumoniae) (UniProt Q2PUH3); test: Ratio of Kcat to Km for Klebsiella pneumoniae AH27 CTX-M-15 beta-lactamase; design: unit not given here
[2] = target: T1, Extended spectrum beta-lactamase CTX-M-71 (Klebsiella pneumoniae) (UniProt C8YUV9); test: Ratio of Kcat to Km for Klebsiella pneumoniae AH24-270 CTX-M-71 beta-lactamase; design: unit not given here
T1 sequence (whole entry): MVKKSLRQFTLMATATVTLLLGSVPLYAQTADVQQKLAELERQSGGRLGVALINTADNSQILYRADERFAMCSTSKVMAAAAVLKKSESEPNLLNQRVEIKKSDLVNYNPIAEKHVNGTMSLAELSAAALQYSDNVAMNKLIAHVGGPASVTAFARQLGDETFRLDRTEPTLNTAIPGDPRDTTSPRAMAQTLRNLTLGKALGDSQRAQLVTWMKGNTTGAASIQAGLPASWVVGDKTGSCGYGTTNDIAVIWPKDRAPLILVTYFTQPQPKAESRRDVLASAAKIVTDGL

SMILES: CO/N=C(\C(=O)N[C@@H]1C(=O)N2C(C(=O)O)=C(COC(C)=O)CS[C@H]12)c1csc(N)n1
- Ratio [1]: 6.77
- Ratio [2]: 0.5

SMILES: CO/N=C(\C(=O)N[C@@H]1C(=O)N2C(C(=O)O)=C(COC(N)=O)CS[C@H]12)c1ccco1
- Ratio [1]: 0.25
- Ratio [2]: 0.1

SMILES: O=C(Cc1cccs1)N[C@@H]1C(=O)N2C(C(=O)[O-])=C(C[n+]3ccccc3)CS[C@H]12
- Ratio [1]: 4.82
- Ratio [2]: 3.8

SMILES: C[C@H]1[C@H](NC(=O)/C(=N\OC(C)(C)C(=O)O)c2csc(N)n2)C(=O)N1S(=O)(=O)O
- Ratio [2]: 0.084

SMILES: CC1(C)S[C@@H]2[C@H](NC(=O)Cc3ccccc3)C(=O)N2[C@H]1C(=O)O
- Ratio [1]: 5.4
- Ratio [2]: 11.8

SMILES: CC(C)(O/N=C(\C(=O)N[C@@H]1C(=O)N2C(C(=O)[O-])=C(C[n+]3ccccc3)CS[C@H]12)c1csc(N)n1)C(=O)O
- Ratio [1]: 0.0186
- Ratio [2]: 0.0038

SMILES: CCN1CCN(C(=O)N[C@@H](C(=O)N[C@@H]2C(=O)N3[C@@H]2SC(C)(C)[C@@H]3C(=O)O)c2ccccc2)C(=O)C1=O
- Ratio [2]: 8.4

SMILES: CC1(C)S[C@@H]2[C@H](NC(=O)[C@H](N)c3ccc(O)cc3)C(=O)N2[C@H]1C(=O)O
- Ratio [2]: 9.4
